Literature values in patent publication US20240197617A1, “ANTI-AGING COSMETIC COMPOSITION BASED ON RESVERATROL AND MAGNOLIA” (Tomcat International Limited, priority 2021, published 2024).

System: TET enzymes
Conditions: study carried out on a mouse

- Effect on activity of TET enzymes: stimulated the activity of TET enzymes
SMILES: C=CCc1ccc(O)c(-c2ccc(O)c(CC=C)c2)c1 [honokiol]
